The values that follow come from ChEMBL document CHEMBL4177594, “Design, synthesis, and evaluation of salicyladimine derivatives as multitarget-directed ligands against Alzheimer's disease” (Bioorg Med Chem, 2017).

The source made the active and inactive calls. The rule behind the calls is not given here.

Data set [1] deals with PC-12. Briefly: Neuroprotective activity against H2O2-induced apoptosis in rat PC12 cells assessed as apoptotic cells at 50 uM after 24 hrs by Annexin V/FITC/propidium iodide staining-based flow cytometry (reference value: 52.3%). It is filed as functional.
The subject of data set [2] is PC-12. Briefly: Neuroprotective activity against H2O2-induced apoptosis in rat PC12 cells assessed as late apoptosis cells level at 12.5 uM after 24 hrs by Annexin V/FITC/propidium iodide staining-based flow cytometry (reference value: 1.9%). It is filed as functional.
Data set [3] relates to PC-12. Kind of data set: Neuroprotective activity against H2O2-induced apoptosis in rat PC12 cells assessed as necrosis cells level at 12.5 uM after 24 hrs by Annexin V/FITC/propidium iodide staining-based flow cytometry (reference value: 0.1%). It is filed as functional.
Data set [4] in a line: Metal chelating activity assessed as compound-Fe3+ complex formation after 30 mins by UV-Vis spectrophotometry based Job's plot.
Data set [5] has as its system PC-12. Kind of data set: Cytotoxicity against rat PC12 cells at 25 uM after 24 hrs by MTT assay. Particulars: pc-12, 24 h. It is filed as cell-based.
In data set [6] the test system is PC-12. Kind of data set: Neuroprotective activity against H2O2-induced apoptosis in rat PC12 cells assessed as viable cells level at 50 uM after 24 hrs by Annexin V/FITC/propidium iodide staining-based flow cytometry (reference value: 96.2%). It is filed as functional.
The test system of data set [7] is PC-12. Kind of data set: Neuroprotective activity against H2O2-induced apoptosis in rat PC12 cells assessed as late apoptosis cells level at 50 uM after 24 hrs by Annexin V/FITC/propidium iodide staining-based flow cytometry (reference value: 1.9%). It is filed as functional.
The nature of data set [8]: Metal chelating activity assessed as compound-Cu2+ complex formation after 30 mins by UV-Vis spectrophotometry based Job's plot.
Data set [9] addresses T1, Amine oxidase [flavin-containing] B (Homo sapiens, UniProt P27338).
T1 sequence (P27338 whole entry): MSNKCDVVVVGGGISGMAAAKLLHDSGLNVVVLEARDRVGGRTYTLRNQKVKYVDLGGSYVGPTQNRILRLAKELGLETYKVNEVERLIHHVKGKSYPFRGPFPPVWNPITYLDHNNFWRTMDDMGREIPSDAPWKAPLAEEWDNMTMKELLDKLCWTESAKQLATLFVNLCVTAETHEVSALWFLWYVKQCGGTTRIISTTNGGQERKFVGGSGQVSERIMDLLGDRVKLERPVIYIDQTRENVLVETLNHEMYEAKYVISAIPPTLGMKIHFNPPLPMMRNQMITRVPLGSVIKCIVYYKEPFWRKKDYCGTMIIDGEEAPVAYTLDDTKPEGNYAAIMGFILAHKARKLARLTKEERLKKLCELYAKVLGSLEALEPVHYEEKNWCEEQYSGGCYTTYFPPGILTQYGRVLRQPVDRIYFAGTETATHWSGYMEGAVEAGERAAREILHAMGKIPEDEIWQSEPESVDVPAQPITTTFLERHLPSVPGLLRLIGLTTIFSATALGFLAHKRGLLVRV
Kind of data set: Inhibition of human MAO-B using p-tyramine as substrate preincubated for 15 mins followed by substrate addition measured after 20 mins by fluorescence-based Amplex Red MAO assay.

Data set [10] relates to PC-12. Kind of data set: Neuroprotective activity against H2O2-induced apoptosis in rat PC12 cells assessed as early apoptosis cells level at 6.25 uM after 24 hrs by Annexin V/FITC/propidium iodide staining-based flow cytometry (reference value: 1.8%). It is filed as functional.
The next data set has as its system BV-2. Briefly: Neuroprotective activity against LPS-induced inflammation in mouse BV2 cells assessed as inhibition of LPS-induced NO production at 10 to 25 uM after 24 hrs in presence of LPS by Griess reaction based assay relative to resveratrol. It is filed as functional, cell-based.
For data set [11], the system named is PC-12. Kind of data set: Neuroprotective activity against H2O2-induced apoptosis in rat PC12 cells assessed as necrosis cells level at 6.25 uM after 24 hrs by Annexin V/FITC/propidium iodide staining-based flow cytometry (reference value: 0.1%). It is filed as functional.
Data set [12] relates to PC-12. Kind of data set: Neuroprotective activity against H2O2-induced apoptosis in rat PC12 cells assessed as late apoptosis cells level at 6.25 uM after 24 hrs by Annexin V/FITC/propidium iodide staining-based flow cytometry (reference value: 1.9%). It is filed as functional.
The subject of data set [13] is PC-12. Kind of data set: Neuroprotective activity against H2O2-induced apoptosis in rat PC12 cells assessed as early apoptosis cells level at 12.5 uM after 24 hrs by Annexin V/FITC/propidium iodide staining-based flow cytometry (reference value: 1.8%). It is filed as functional.
For data set [14], the system named is PC-12. Briefly: Neuroprotective activity against H2O2-induced apoptosis in rat PC12 cells assessed as necrosis cells level at 50 uM after 24 hrs by Annexin V/FITC/propidium iodide staining-based flow cytometry (reference value: 0.1%). It is filed as functional.
Data set [15] concerns PC-12. Briefly: Neuroprotective activity against H2O2-induced apoptosis in rat PC12 cells assessed as viable cells level at 6.25 uM after 24 hrs by Annexin V/FITC/propidium iodide staining-based flow cytometry (reference value: 96.2%). It is filed as functional.
Data set [16] in a line: Antioxidant activity assessed as DPPH radical scavenging activity after 30 mins. It is filed as functional.
Data set [17] has as its target Amyloid-beta precursor protein (Homo sapiens) (UniProt P05067). Kind of data set: Inhibition of self-induced aggregation of amyloid beta (1 to 42 residues) (unknown origin) at 25 uM incubated for 48 hrs by Thioflavin T fluorescence assay relative to control.
In data set [18] the test system is PC-12. Kind of data set: Neuroprotective activity against H2O2-induced apoptosis in rat PC12 cells assessed as early apoptosis cells level at 25 uM after 24 hrs by Annexin V/FITC/propidium iodide staining-based flow cytometry (reference value: 1.8%). It is filed as functional.
Data set [19] concerns PC-12. Kind of data set: Neuroprotective activity against H2O2-induced apoptosis in rat PC12 cells assessed as viable cells level at 25 uM after 24 hrs by Annexin V/FITC/propidium iodide staining-based flow cytometry (reference value: 96.2%). It is filed as functional.
Data set [20] concerns PC-12. Kind of data set: Neuroprotective activity against H2O2-induced apoptosis in rat PC12 cells assessed as apoptotic cells at 6.25 uM after 24 hrs by Annexin V/FITC/propidium iodide staining-based flow cytometry (reference value: 52.3%). It is filed as functional.
For data set [21], the system named is PC-12. Briefly: Antioxidant activity against H2O2-induced oxidative stress in rat PC12 cells assessed as reduction in intracellular ROS levels after 48 hrs by DCFH-DA staining based flow cytometry. It is filed as functional, cell-based.
In data set [22] the test system is PC-12. Briefly: Neuroprotective activity against H2O2-induced cytotoxicity in rat PC12 cells assessed as increase in cell viability at 6.25 to 25 uM preincubated for 24 hrs followed by H2O2 addition and measured after 24 hrs by MTT assay. It is filed as functional, cell-based.
Data set [23] concerns PC-12. Kind of data set: Neuroprotective activity against H2O2-induced apoptosis in rat PC12 cells assessed as early apoptosis cells level at 50 uM after 24 hrs by Annexin V/FITC/propidium iodide staining-based flow cytometry (reference value: 1.8%). It is filed as functional.

Amyloid-beta precursor protein (Homo sapiens), sequence (P05067 whole entry, the tested form may be a part): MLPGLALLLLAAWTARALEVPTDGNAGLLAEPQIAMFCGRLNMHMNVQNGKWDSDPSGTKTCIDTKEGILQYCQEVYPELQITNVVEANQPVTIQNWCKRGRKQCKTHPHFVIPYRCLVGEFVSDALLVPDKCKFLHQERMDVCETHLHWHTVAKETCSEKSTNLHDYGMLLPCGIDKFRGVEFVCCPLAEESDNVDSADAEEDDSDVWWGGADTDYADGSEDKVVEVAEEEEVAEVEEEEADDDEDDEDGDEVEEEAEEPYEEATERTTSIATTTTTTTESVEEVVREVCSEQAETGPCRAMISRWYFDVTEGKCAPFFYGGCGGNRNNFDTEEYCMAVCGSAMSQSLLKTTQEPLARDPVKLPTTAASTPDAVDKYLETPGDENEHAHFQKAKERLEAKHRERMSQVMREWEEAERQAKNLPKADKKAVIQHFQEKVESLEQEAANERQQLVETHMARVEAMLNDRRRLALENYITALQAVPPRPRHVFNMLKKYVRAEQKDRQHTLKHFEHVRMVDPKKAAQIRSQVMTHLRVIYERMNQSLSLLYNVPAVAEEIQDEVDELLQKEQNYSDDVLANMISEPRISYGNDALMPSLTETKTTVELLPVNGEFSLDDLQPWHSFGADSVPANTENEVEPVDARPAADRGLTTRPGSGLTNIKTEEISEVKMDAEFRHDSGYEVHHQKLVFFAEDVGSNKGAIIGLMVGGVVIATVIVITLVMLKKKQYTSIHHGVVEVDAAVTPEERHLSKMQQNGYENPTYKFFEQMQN

Consider `Oc1ccc(/C=N/c2ccc(OCc3ccccc3)cc2)c(O)c1O`, for which the Activity in the data set on PC-12 [1] was 6.1%; with PC-12 [2], 4.2%; in the data set with PC-12 [3], 0.4%; with PC-12 [5], “Non-Toxic”; with PC-12 [6], 91.1%; with PC-12 [7], 2.3%. The Activity in the data set with PC-12 [10] is 26.7%; with PC-12 [11], 0.8%; with PC-12 [12], 11.9%; in the data set on PC-12 [13], 25.7%; in the data set with PC-12 [14], 3%; in the data set with PC-12 [15], 60.6%. The Activity is 8.5% in the data set on PC-12 [18]; 87.7% in the data set on PC-12 [19]; 38.6% in the data set on PC-12 [20]; “Dose-dependent effect” in the data set on PC-12 [21]; 3.7% in the data set with PC-12 [23]. Moreover, the log K turned out to be 6.19 in [4] and 8.01 in [8]. Further, the IC50 in data set [9] turned out to be 1.73 µM; in [16] it was 43.4 µM. Besides, the result with BV-2 and with PC-12 [22] was Active. The compound further had an inhibition in data set [17] of 91.3%.
